We go through 32 compounds from patent US9550775B2, “Substituted triazolopyridines and methods of use thereof” (GENENTECH, INC., priority 2013, dated 2017).

Sequence of hNav1.7 (Q15858 other isoform, or with tags, fused parts or gaps): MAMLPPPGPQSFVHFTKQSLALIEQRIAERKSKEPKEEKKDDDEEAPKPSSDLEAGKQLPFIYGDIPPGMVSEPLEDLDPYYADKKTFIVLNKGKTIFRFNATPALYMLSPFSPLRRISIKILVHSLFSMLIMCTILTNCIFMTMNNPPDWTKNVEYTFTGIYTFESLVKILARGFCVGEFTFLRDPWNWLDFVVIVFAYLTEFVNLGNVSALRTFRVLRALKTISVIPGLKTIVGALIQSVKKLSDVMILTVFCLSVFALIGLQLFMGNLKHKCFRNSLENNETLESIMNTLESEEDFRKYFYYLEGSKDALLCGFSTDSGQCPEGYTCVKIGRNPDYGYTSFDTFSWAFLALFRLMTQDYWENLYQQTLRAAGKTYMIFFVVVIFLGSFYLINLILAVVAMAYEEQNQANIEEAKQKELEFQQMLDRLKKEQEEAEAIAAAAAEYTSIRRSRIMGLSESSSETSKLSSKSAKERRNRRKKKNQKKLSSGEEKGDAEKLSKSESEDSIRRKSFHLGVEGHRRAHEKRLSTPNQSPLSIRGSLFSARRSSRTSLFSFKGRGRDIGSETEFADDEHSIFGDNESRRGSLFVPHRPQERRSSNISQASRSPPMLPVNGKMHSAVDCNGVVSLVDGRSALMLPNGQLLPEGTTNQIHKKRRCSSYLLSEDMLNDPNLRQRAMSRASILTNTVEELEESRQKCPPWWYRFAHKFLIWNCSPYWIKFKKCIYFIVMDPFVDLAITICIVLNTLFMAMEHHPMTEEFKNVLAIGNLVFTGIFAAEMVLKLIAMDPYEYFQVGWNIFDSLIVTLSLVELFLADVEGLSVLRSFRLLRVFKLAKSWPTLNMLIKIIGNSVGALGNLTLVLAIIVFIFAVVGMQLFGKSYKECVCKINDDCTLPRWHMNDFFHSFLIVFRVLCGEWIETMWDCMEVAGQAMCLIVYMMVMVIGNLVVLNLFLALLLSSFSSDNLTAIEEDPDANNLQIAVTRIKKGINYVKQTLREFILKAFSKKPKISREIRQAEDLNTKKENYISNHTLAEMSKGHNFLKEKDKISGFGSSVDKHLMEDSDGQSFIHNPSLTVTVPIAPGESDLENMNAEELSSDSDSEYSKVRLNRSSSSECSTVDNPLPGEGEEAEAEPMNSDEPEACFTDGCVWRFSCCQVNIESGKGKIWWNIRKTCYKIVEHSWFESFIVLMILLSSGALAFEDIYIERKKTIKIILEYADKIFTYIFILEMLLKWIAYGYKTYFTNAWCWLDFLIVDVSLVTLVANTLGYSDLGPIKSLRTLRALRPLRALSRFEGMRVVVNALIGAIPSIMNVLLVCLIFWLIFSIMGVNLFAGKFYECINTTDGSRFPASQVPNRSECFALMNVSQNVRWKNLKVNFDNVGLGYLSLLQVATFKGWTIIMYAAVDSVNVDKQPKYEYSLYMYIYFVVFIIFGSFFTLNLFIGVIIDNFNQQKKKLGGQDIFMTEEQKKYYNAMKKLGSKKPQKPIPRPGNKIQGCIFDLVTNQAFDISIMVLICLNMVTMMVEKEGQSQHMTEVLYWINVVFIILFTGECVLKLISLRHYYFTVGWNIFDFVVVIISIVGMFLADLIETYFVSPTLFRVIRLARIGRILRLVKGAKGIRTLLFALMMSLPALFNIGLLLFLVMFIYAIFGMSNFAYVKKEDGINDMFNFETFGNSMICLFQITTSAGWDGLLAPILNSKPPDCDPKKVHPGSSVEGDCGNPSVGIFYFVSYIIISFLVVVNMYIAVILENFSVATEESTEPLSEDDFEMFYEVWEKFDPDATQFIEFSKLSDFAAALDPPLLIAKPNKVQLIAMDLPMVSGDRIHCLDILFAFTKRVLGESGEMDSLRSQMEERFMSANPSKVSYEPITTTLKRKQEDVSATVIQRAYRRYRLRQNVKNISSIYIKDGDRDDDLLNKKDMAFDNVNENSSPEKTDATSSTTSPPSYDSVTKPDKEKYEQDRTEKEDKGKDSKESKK
Sequence of hNav1.7 (Q07699 19-218 partner): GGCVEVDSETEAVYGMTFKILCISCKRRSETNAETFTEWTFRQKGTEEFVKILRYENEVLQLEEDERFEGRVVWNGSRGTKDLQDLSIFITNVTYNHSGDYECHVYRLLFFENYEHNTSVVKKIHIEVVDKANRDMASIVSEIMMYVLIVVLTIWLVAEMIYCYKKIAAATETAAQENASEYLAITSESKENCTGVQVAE

This assay concerns the target hNav1.7 (Homo sapiens (Human), UniProt Q15858). Kind of assay: Tritiated sulfonamide competitive binding to membranes from cells expressing hNav1.7 and the β1 subunit.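 Note: displacement of the tritiated ligand from recombinant cell membranes, read by liquid scintillation counting of filter-bound radioactivity, nonspecific binding defined with 1 µM unlabelled compound.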 Conditions: 100 pM [3H]compound, 18 h, room temperature; inactivated state of NaV1.7 membrane binding; read-out: NaV1.7 Ligand Binding Assay (IC50).
One may read the IC50 as the concentration at which inhibition is half-maximal. As to `O=S(=O)(Nc1nnc2cc(OCCC34CC5CC(CC(C5)C3)C4)c(C3CC3)cn12)C1CC1` [Example 77, N-(7-(2-((3r,5r,7r)-adamantan-1-yl)ethoxy)-6-cyclopropyl-[1,2,4]triazolo[4,3-a]pyridin-3-yl)cyclopropanesulfonamide], the IC50 was 7 nM.
For the compound `O=S(=O)(Nc1nnc2cc(OC3C4CC5CC(C4)CC3C5)c(C3CC3)cn12)C1CC1` (centres unmarked) [Example 79, N-(7-(adamantan-2-yloxy)-6-cyclopropyl-[1,2,4]triazolo-[4,3-a]pyridin-3-yl)cyclopropanesulfonamide], the IC50 came to 66 nM.
Turning to `CS(=O)(=O)Nc1nnc2cc(OCC3CC4C5CCC(C5)C4C3)c(C3CC3)cn12` [Example 80, N-(6-cyclopropyl-7-(((2s,3aR,4S,7R,7aS)-octahydro-1H-4,7-methanoinden-2-yl)methoxy)-[1,2,4]triazolo[4,3-a]pyridin-3-yl)methanesulfonamide], the IC50 was determined as 5 nM.
Consider `CC1(C)[C@H]2CC[C@H](COc3cc4nnc(NS(C)(=O)=O)n4cc3C3CC3)[C@@H]1C2` [Example 83], for which the IC50 turned out to be 3 nM.
Regarding `CC1(C)[C@H]2CC[C@H](COc3cc4nnc(NS(=O)(=O)N5CCC5)n4cc3C3CC3)[C@@H]1C2` [Example 85, N-(6-cyclopropyl-7-(((1S,2S,5S)-6,6dimethylbicyclo [3.1.1]heptan-2-yl)methoxy)-[1,2,4]triazolopyridin-3-yl)azetidine-1-sulfonamide], the IC50 amounted to 7 nM.
Turning to `CS(=O)(=O)Nc1nnc2cc(OC[C@H]3CC[C@H](C)CC3)c(Br)cn12` [Example 87], the IC50 was 87 nM.
Take `CS(=O)(=O)Nc1nnc2cc(OC[C@H]3CC[C@H](C)CC3)c(C3CC3)cn12` [Example 88]: the IC50 is 18 nM.
Regarding `O=S(=O)(Nc1nnc2cc(OC3CCC4(CCCCC4)CC3)c(C3CC3)cn12)C1CC1` [Example 90, N-(6-cyclopropyl-7-(spiro[5.5]undecan-3-yloxy)-[1,2,4]triazolo[4,3-a]pyridin-3-yl)cyclopropanesulfonamide], the IC50 is 51 nM.
With `CS(=O)(=O)Nc1nnc2cc(OCC3(C(F)(F)F)CCCC3)c(C3CC3)cn12` [Example 92, N-(6-cyclopropyl-7-((1-(trifluoromethyl)cyclopentyl)methoxy)-[1,2,4]triazolo[4,3-a]pyridin-3-yl)methanesulfonamide], the half-inhibitory concentration (IC50) came to 45 nM.
`O=S(=O)(Nc1nnc2cc(COc3ccc(Cl)c(Cl)c3)c(C3CC3)cn12)C1CC1` [Example 94, N-(6-cyclopropyl-7-((3,4-dichlorophenoxy)methyl)-[1,2,4]-triazolo[4,3-a]pyridin-3-yl)cyclopropanesulfonamide]: the IC50 stood at 7 nM.
For `O=S(=O)(Nc1nnc2cc(COc3ccc(Cl)c(Cl)c3)c(C3CC3)cn12)N1CCC1` [Example 96, N-(6-cyclopropyl-7-((3,4-dichlorophenoxy)methyl)-[1,2,4]triazolo[4,3-a]pyridin-3-yl)azetidine-1-sulfonamide] the value was 19 nM.
Regarding `O=S(=O)(Nc1nnc2cc(COc3cc(Cl)cc(OC(F)(F)F)c3)c(C3CC3)cn12)C1CC1` [Example 97, N-(7-((3-chloro-5-(trifluoromethoxy)phenoxy)methyl)-6-cyclopropyl-[1,2,4]triazolo[4,3-a]pyridin-3-yl)cyclopropanesulfonamide], the IC50 was found to be 3 nM.
With `CS(=O)(=O)Nc1nnc2cc(COc3cc(Cl)cc(OC(F)(F)F)c3)c(C3CC3)cn12` [Example 98, N-(7-((3-chloro-5-(trifluoromethoxy)phenoxy)methyl)-6-cyclopropyl-[1,2,4]triazolo[4,3-a]pyridin-3-yl)methanesulfonamide], the half-inhibitory concentration (IC50) is 3 nM.
Turning to `Cc1cc(Cl)cc(OCc2cc3nnc(NS(C)(=O)=O)n3cc2C2CC2)c1` [Example 102, N-(7-((3-chloro-5-methylphenoxy)methyl)-6-cyclopropyl-[1,2,4]triazolo[4,3-a]pyridin-3-yl)methanesulfonamide], the IC50 was 7 nM.
As to `Cc1cc(Cl)cc(OCc2cc3nnc(NS(=O)(=O)C4CC4)n3cc2C2CC2)c1` [Example 103, N-(7-((3-chloro-5-methylphenoxy)methyl)-6-cyclopropyl-[1,2,4]triazolo[4,3-a]pyridin-3-yl)cyclopropanesulfonamide], the IC50 is 6 nM.
Consider `CC1(S(=O)(=O)Nc2nnc3cc(COc4cc(Cl)cc(OC(F)(F)F)c4)c(C4CC4)cn23)CC1` [Example 104, N-(7-((3-chloro-5-(trifluoromethoxy)phenoxy)methyl)-6-cyclopropyl-[1,2,4]triazolo[4,3-a]pyridin-3-yl)-1-methylcyclopropane-1-sulfonamide], for which the IC50 is 4 nM.
For the compound `CC1(S(=O)(=O)Nc2nnc3cc(COc4cc(Cl)cc(Cl)c4)c(C4CC4)cn23)CC1` [Example 105, N-(6-cyclopropyl-7-((3,5-dichlorophenoxy)methyl)-[1,2,4]-triazolo[4,3-a]pyridin-3-yl)-1-methylcyclopropane-1-sulfonamide], the IC50 was found to be 5 nM.
As to `CC1(COc2cc3nnc(NS(=O)(=O)C4CC4)n3cc2C2CC2)CCC(F)(F)CC1` [Example 108, N-(6-cyclopropyl-7-((4,4-difluoro-1-methylcyclohexyl)methoxy)-[1,2,4]triazolo[4,3-a]pyridin-3-yl)cyclopropanesulfonamide], the IC50 was determined as 67 nM.
Consider `CC1(COc2cc3nnc(NS(C)(=O)=O)n3cc2C2CC2)CCN(Cc2cc(Cl)cc(Cl)c2)CC1` [Example 110, N-(6-cyclopropyl-7-((1-(3,5-dichlorobenzyl)-4-methylpiperidin-4-yl)methoxy)-[1,2,4]triazolopyridin-3-yl)methanesulfonamide], for which the IC50 was 12 nM.
Consider `CC1(COc2cc3nnc(NS(=O)(=O)C4CC4)n3cc2C2CC2)CCN(Cc2cc(Cl)cc(Cl)c2)CC1` [Example 111, N-(6-cyclopropyl-7-((1-(3,5-dichlorobenzyl)-4-methylpiperidin-4-yl)methoxy)-[1,2,4]triazolo[4,3-a]pyridin-3-yl)cyclopropanesulfonamide], for which the concentration for half-maximal inhibition (IC50) is 8 nM.
Take `CS(=O)(=O)Nc1nnc2cc(O[C@@H]3CCCN(Cc4ccc(F)cc4Cl)C3)c(C3CC3)cn12` [Example 112, (R)—N-(7-((1-(2-chloro-4-fluorobenzyl)piperidin-3-yl)oxy)-6-cyclopropyl-[1,2,4]triazolo[4,3-a]pyridin-3-yl)methanesulfonamide]: the IC50 came out at 130 nM.
As for `O=S(=O)(Nc1nnc2cc(O[C@@H]3CCCN(Cc4ccc(F)cc4Cl)C3)c(C3CC3)cn12)C1CC1` [Example 113, (R)—N-(7-((1-(2-chloro-4-fluorobenzyl)piperidin-3-yl)oxy)-6-cyclopropyl-[1,2,4]triazolo[4,3-a]pyridin-3-yl)cyclopropanesulfonamide], the IC50 is 34 nM.
For the compound `CC1(COc2cc3nnc(NS(=O)(=O)C4CC4)n3cc2C2CC2)CCC2(CC1)CC2` [Example 114, N-(6-cyclopropyl-7-((6-methylspiro[2.5]octan-6-yl)methoxy)-[1,2,4]triazolo[4,3-a]pyridin-3-yl)cyclopropanesulfonamide], the IC50 came out at 8 nM.
For `CC1(COc2cc3nnc(NS(C)(=O)=O)n3cc2C2CC2)CCN(C(c2ccccc2)c2ccccc2)CC1` [Example 116, N-(7-((1-benzhydryl-4-methylpiperidin-4-yl)methoxy)-6-cyclopropyl-[1,2,4]triazolo[4,3-a]pyridin-3-yl)methanesulfonamide], the IC50 amounted to 16 nM.
Under `C[C@@H](c1cc(Cl)cc(Cl)c1)N1CCC(C)(COc2cc3nnc(NS(C)(=O)=O)n3cc2C2CC2)CC1` [Example 117, (S)—N-(6-cyclopropyl-7-((1-(1-(3,5-dichlorophenyl)ethyl)-4-methylpiperidin-4-yl)methoxy)-[1,2,4]triazolo[4,3-a]pyridin-3-yl)methanesulfonamide] stands 13 nM; under `C[C@H](c1cc(Cl)cc(Cl)c1)N1CCC(C)(COc2cc3nnc(NS(C)(=O)=O)n3cc2C2CC2)CC1` [Example 118, (R)—N-(6-cyclopropyl-7-((1-(1-(3,5-dichlorophenyl)ethyl)-4-methylpiperidin-4-yl)methoxy)-[1,2,4]triazolo[4,3-a]pyridin-3-yl)methanesulfonamide], 14 nM.
For the compound `C[C@H](c1cc(Cl)cc(Cl)c1)N1CCC(COc2cc3nnc(NS(C)(=O)=O)n3cc2C2CC2)CC1` [Example 119, (R)—N-(6-cyclopropyl-7-((1-(1-(3,5-dichlorophenyl)ethyl)piperidin-4-yl)methoxy)-[1,2,4]triazolo[4,3-a]pyridin-3-yl)methanesulfonamide], the IC50 was 23 nM.
For `C[C@@H](c1cc(Cl)cc(Cl)c1)N1CCC(COc2cc3nnc(NS(=O)(=O)C4CC4)n3cc2C2CC2)CC1` [Example 121] the value was 12 nM; for `CC12CC3(C)CC(C)(C1)CC(COc1cc4nnc(NS(C)(=O)=O)n4cc1C1CC1)(C2)C3` [Example 122, N-(6-cyclopropyl-7-((3,5,7-trimethyladamantan-1-yl)methoxy)-[1,2,4]triazolo[4,3-a]pyridin-3-yl)methanesulfonamide], 2 nM.
Under `CS(=O)(=O)Nc1nnc2cc(OC[C@@H]3C[C@H]4CC[C@@H](C3)N4C(c3ccccc3)c3ccccc3)c(C3CC3)cn12` [Example 123, N-(7-(((1R,3S,5S)-8-benzhydryl-8-azabicyclo[3.2.1]octan-3-yl)methoxy)-6-cyclopropyl-[1,2,4]triazolo[4,3-a]pyridin-3-yl)methanesulfonamide] stands 17 nM; under `O=S(=O)(Nc1nnc2cc(CN3CCC(Oc4cc(Cl)cc(Cl)c4)CC3)c(C3CC3)cn12)C1CC1` [Example 124, N-(6-cyclopropyl-7-((4-(3,5-dichlorophenoxy)piperidin-1-yl)methyl)-[1,2,4]triazolo[4,3-a]pyridin-3-yl)cyclopropanesulfonamide], 320 nM; under `CCc1cn2c(NS(=O)(=O)N3CCC3)nnc2cc1OCC12CC3CC(CC(C3)C1)C2` [Example 126, N-(7-(adamantan-1-ylmethoxy)-6-ethyl-[1,2,4]triazolo[4,3-a]pyridin-3-yl)azetidine-1-sulfonamide], 31 nM.
